Target: T1, ΔN-TClpB (Thermus thermophilus, UniProt Q9RA63)
T1 construct: gene clpB; N-terminal domain deletion (AAA1, M-domain and AAA2 kept); from plasmid pMCB1; expressed in E. coli BL21(DE3) or KRX; purified; hexamer and smaller oligomers
Assay: fluorescence displacement of mant-ADP
Conditions: per monomer; competitive binding model; 12.5 μM mant-ADP; Mg-ATP; pH 7.5, 20 mM KCl, 5 mM MgCl2, 25 °C; read-out: apparent Kd

T1 sequence (Q9RA63 141-854, stated change not applied): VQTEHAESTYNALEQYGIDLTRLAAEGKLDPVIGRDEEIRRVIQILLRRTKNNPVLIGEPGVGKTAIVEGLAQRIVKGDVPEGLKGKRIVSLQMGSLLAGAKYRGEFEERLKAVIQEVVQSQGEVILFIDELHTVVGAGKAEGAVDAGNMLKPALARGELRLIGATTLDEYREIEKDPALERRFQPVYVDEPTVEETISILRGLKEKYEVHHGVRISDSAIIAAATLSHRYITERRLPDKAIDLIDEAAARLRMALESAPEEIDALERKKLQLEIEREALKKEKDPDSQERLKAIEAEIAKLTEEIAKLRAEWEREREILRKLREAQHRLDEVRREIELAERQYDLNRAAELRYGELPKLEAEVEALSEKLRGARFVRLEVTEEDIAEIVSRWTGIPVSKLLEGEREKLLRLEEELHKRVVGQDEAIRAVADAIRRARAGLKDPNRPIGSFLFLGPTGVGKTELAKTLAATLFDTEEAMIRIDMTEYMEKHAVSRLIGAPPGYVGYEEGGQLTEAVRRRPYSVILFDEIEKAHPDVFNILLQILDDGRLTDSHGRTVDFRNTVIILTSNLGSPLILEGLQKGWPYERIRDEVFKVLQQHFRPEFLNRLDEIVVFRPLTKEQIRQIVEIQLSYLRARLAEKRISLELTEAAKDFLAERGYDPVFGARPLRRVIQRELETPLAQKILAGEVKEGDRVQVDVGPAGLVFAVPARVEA

SMILES: Nc1ncnc2c1ncn2[C@@H]1O[C@H](COP(=O)(O)OP(=O)(O)OP(=O)(O)O)[C@@H](O)[C@H]1O [ATP]
- Kd: 9.2 µM

Reference: publication PMC5984625, “Dynamic structural states of ClpB involved in its disaggregation function” (Nature Communications, 2018)
